What is called EC50 is the concentration giving half of the maximal effect. What is called Emax is the maximal effect, on the per cent scale that the assay sets. Broadly, the IC50 is the point on the concentration scale where inhibition reaches its midpoint. Low values mean inhibition by little substance, high ones a need for much substance. Usually solubility stands for how much of the substance goes into solution per volume. A higher solubility goes with much dissolved substance.

Each structure is given as a SMILES string. Numbered stars: 1 amine (or outer) side, 2 acyl side, 3 side chain; on linkers, the order of the positions; unused ones are H or OH. Square brackets hold non-standard residues; d marks the D form. Side chains are listed from the residue outwards. Peptide text beside a SMILES is read from it. * marks the point of attachment. C18 diacid = O=C(O)CCCCCCCCCCCCCCCCC(=O)*; γGlu = O=C(O)[C@H](CCC(=O)[*:2])N[*:1]; Abu = CC[C@H](N)C(=O)O; AEEA = NCCOCCOCC(=O)O; Aib = CC(C)(N)C(=O)O Where only a bound is given, the exact number is not on record here.

Experimental findings from patent US20240360194A1, “New Peptides as Potent and Selective GIP Receptor Agonists” (Sanofi, priority 2021, published 2024) are described below.

One data set deals with T1, human GIP receptor (Homo sapiens, UniProt P48546).
T1 construct: human adipocytes endogenously expressing the human GIP receptor; host or cells: human preadipocytes (Lonza) differentiated to adipocytes
T1 sequence (P48546 22-466): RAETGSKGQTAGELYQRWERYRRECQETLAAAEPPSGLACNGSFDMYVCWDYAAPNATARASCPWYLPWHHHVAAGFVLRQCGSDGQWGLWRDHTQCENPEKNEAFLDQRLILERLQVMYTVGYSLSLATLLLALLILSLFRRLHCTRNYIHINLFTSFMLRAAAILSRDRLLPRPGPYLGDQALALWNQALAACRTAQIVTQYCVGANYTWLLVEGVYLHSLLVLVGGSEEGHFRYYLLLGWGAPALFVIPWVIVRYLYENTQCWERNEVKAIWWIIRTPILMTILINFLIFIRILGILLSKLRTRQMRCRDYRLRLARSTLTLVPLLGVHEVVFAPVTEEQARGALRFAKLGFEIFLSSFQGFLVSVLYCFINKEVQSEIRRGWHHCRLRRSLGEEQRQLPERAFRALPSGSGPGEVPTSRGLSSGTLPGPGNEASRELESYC
The data set can be described thus: In vitro cellular cAMP assay for GIP receptor efficacy (human adipocytes). Format: cell-based. The conditions noted are these: for EC50: read-out: hGIPR EC50; for Emax: read-out: hGIPR Emax. How it is done:
For this, one vial of human preadipocytes (˜10^6 cells; Lonza) was thawed in a T-75 cell culture dish. The cells were cultivated at 37° C., 5% CO2, 95% humidity in Preadipocyte Growth Medium with Supplement Mix from Promo Cell.
After 3 days, the cells were washed with PBS and 1.5 ml Trypsin, incubated for 4 min, then resuspended in medium, centrifugated for 10 min @ 300 rcf RT, resuspended again and distributed to four T-75 cell culture dishes. Again, the cells were cultivated at 37° C., 5% CO2, 95% humidity.
After 5 days, the cells were washed with PBS and 1.5 ml Trypsin, incubated for 4 min, then resuspended in medium, centrifugated for 10 min @ 300 rcf RT, resuspended again and sawn in T-75 dishes (2.5×10^6 cells per dish) in 15 ml Differentiation medium each.
The differentiation medium had the following composition: DMEM (Gibco), Ham's F10 (Gibco), 15 mM HEPES (Gibco), 3% FCS (PAA), 33 μM biotin (Sigma-Aldrich), 17 μM Pantothenate (Sigma-Aldrich), 0.1 μM human insulin (Sigma-Aldrich), 1 μM dexamethason (Sigma-Aldrich), 0.1 μM PPARgamma agonist (#R2408, Sigma-Aldrich), 0.6×Anti-Anti (#15240, ThermoFisher), 200 μM IBMX (AppliChem), and 0.01 μM L-thyroxine (Sigma-Aldrich).
After 6 days of differentiation, 5000 cells per well were dispensed on a 96-well plate (#CLS3694 from Corning®, Sigma-Aldrich). For measurement of cAMP generation, 25 μL of test compound was added to each well of the 96-well plate, followed by incubation for 30 min at room temperature.
The cAMP generated following test compound stimulation was determined using a kit from Cisbio Corp. based on HTRF (Homogenous Time Resolved Fluorescence). The cAMP assay was performed according to manufacturer's instructions (Cisbio).
The cAMP content of cells was determined using a kit from Cisbio Corp. based on HTRF (Homogenous Time Resolved Fluorescence).
After addition of HTRF reagents diluted in lysis buffer (kit components), the plates were incubated for 1 h, followed by measurement of the fluorescence ratio at 665/620 nm.
In general terms: cAMP levels reflect the balance of adenylyl cyclase and phosphodiesterase activity.

In data set [1] the target is T2, human GIP receptor (hGIPR) (Homo sapiens, UniProt P48546).
T2 sequence (P48546 22-466): T1 sequence (P48546 22-466)
Nature of the data set: Binding assay, displacement of [125I]GIP from HEK-293 membranes over-expressing GIPR (SPA). The following applies: [125I]GIP displacement. How it is done:
(1) Preparation of Membranes from HEK-293 Cells Over-Expressing GIPR or GLP-1R
HEK-293 cells recombinantly over-expressing GIPR or GLP-1R were grown to 50% confluency, washed with warm 1×PBS (Gibco) and detached in HEPES/EDTA-buffer (100 mM HEPES pH 7.5, 5 mM EDTA). Cells were harvested by centrifugation at 4° C. and 3000×g and the pellets were stored at −80° C. until further processing.
After thawing on ice, pellets were resuspended in HEPES/EDTA-buffer and homogenized on ice for 1 min using Ultra-Turray T25. After subsequent sonification the cell debris was removed by centrifugation at 1000×g and 4° C. Supernatants were then ultra-centrifuged at 100000×g and 4° C. under vacuum for 30 min. Pellets were resuspended in HEPES/EDTA/NaCl-buffer (20 mM HEPES, 1 mM EDTA, 150 mM NaCl; add 1 Complete Mini Protease inhibitor cocktail to 10 ml buffer) and protein content was determined via BCA-Protein assay.
(2) Measurement of Binding Activity of Test Compounds to Human GIPR or GLP-1R
A general note: Loss of bound radioactivity is the signal in a displacement assay; it reports binding, not function.

Data set [2] is described as follows: Solubility assessment (UHPLC-UV of supernatant, target 10 mg/ml). Type of data set: physicochemical. The following applies: for Soluble amount: 24 h, pH 7.4; for solubility at 24 h: pH 7.4, Soluble amount. As to the method:
Prior to the solubility measurement of a peptide batch, its purity was determined through UHPLC/MS.
Therefore, solutions from solid samples were prepared in a buffer system with a concentration of 10 mg/ml compound based on the previously determined % purity: • Solubility buffer system A) 100 mM phosphate buffer pH 7.4 • Solubility buffer system B) 8 mM phosphate buffer pH 7.4, 14 mg/ml propylene glycol, 5.5 mg/ml phenol • Solubility buffer system C) 100 mM phosphate buffer pH 7.4, 2.7 mg/ml m-cresol
UHPLC-UV was performed after 1 h of gentle agitation and storage at 5° C. overnight (24 h) from the supernatant, which was obtained after 15 min of centrifugation at 2500 RCF (relative centrifugal acceleration).
The different UV extinction coefficients of sample and reference peptide were calculated based on the different amino acid sequences and considered in the concentration calculation.
The analytical method used was Analytical UHPLC Method A.
Peptide samples were prepared in solubility buffer system A or C and solubility was assessed as described in Methods.

In data set [3] the target is human GLP-1 receptor (hGLP-1R) (Homo sapiens, UniProt P43220). Nature of the data set: In vitro cellular cAMP assay for GLP-1 receptor efficacy (HEK-293 cell line over-expressing receptor). The following applies: HEK-293, 0.1% BSA. Type of data set: cell-based.
Sequence of human GLP-1 receptor (hGLP-1R) (P43220 24-463): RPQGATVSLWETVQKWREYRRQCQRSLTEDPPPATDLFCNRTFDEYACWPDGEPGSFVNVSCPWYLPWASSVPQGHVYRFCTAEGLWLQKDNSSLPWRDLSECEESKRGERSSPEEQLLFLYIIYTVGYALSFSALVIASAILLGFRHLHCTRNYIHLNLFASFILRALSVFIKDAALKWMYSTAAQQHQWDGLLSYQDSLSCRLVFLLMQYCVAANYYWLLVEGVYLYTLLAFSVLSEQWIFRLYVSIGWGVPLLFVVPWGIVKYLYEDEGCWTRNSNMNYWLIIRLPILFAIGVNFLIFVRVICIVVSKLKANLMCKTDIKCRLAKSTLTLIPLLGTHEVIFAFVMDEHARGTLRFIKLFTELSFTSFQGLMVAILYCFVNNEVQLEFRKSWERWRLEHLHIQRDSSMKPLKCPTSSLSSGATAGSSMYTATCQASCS

As for `CC[C@H](NC(=O)[C@@H](NC(=O)CNC(=O)[C@H](CCC(=O)O)NC(=O)C(C)(C)NC(=O)[C@@H](N)Cc1ccc(O)cc1)[C@@H](C)O)C(=O)N[C@H](C(=O)N[C@@H](CO)C(=O)N[C@@H](CC(=O)O)C(=O)N[C@@H](CC(C)C)C(=O)N[C@@H](CO)C(=O)N[C@H](C(=O)NC(C)(C)C(=O)N[C@@H](CCCCNC(=O)COCCOCCNC(=O)COCCOCCNC(=O)CC[C@H](NC(=O)CCCCCCCCCCCCCCCCC(=O)O)C(=O)O)C(=O)N[C@@H](CC(=O)O)C(=O)N[C@@H](CCCNC(=N)N)C(=O)N[C@H](C(=O)N[C@@H](Cc1c[nH]cn1)C(=O)N[C@@H](CCC(N)=O)C(=O)N[C@@H](CCC(=O)O)C(=O)N[C@@H](CCC(=O)O)C(=O)N[C@@H](Cc1ccccc1)C(=O)N[C@H](C(=O)N[C@@H](CCC(=O)O)C(=O)N[C@@H](Cc1c[nH]c2ccccc12)C(=O)N[C@@H](CC(C)C)C(=O)N[C@@H](CC(C)C)C(=O)N[C@@H](C)C(=O)N[C@@H](CCC(N)=O)C(=O)NCC(=O)N1CCC[C@H]1C(=O)N[C@@H](CO)C(=O)N[C@@H](CO)C(=O)NCC(=O)N[C@@H](C)C(=O)N1CCC[C@H]1C(=O)N1CCC[C@H]1C(=O)N1CCC[C@H]1C(=O)N[C@@H](CO)C(N)=O)[C@@H](C)CC)[C@@H](C)CC)[C@@H](C)CC)[C@@H](C)CC` [SEQ ID NO: 25, H2N-Y-Aib-E-G-T-Abu-I-S-D-L-S-I-Aib-K[{AEEA}2-gGlu-C18OH]-DRIHQEEFIEWLLAQGPSSGAPPPS-NH2] (H-Y[Aib]EGT[Abu]ISDLSI[Aib]K([AEEA-AEEA-γGlu-C18 diacid])DRIHQEEFIEWLLAQGPSSGAPPPS-NH2), at human GIP receptor, the EC50 was 0.2 nM and the Emax was found to be 112%. Further, in data set [1], the IC50 amounted to 0.1 nM. Further, in data set [2], the Soluble amount is more than 9.2 mg/mL and the solubility at 24 h was more than 8800 µg/mL. In data set [3], this compound showed an EC50 of more than 10 nM.
Regarding `CC[C@H](C)[C@H](NC(=O)[C@H](Cc1ccccc1)NC(=O)[C@H](CCC(=O)O)NC(=O)[C@H](CCC(=O)O)NC(=O)[C@H](CCC(N)=O)NC(=O)[C@H](Cc1c[nH]cn1)NC(=O)[C@@H](NC(=O)[C@H](CCCNC(=N)N)NC(=O)[C@H](CC(=O)O)NC(=O)[C@H](CCCCNC(=O)COCCOCCNC(=O)COCCOCCNC(=O)CC[C@H](NC(=O)CCCCCCCCCCCCCCCCC(=O)O)C(=O)O)NC(=O)C(C)(C)NC(=O)[C@@H](NC(=O)[C@H](CO)NC(=O)[C@H](CC(C)C)NC(=O)[C@H](CC(=O)O)NC(=O)[C@H](CO)NC(=O)[C@@H](NC(=O)[C@H](Cc1ccccc1)NC(=O)[C@@H](NC(=O)CNC(=O)[C@H](CCC(=O)O)NC(=O)C(C)(C)NC(=O)[C@@H](N)Cc1ccc(O)cc1)[C@@H](C)O)[C@@H](C)CC)[C@@H](C)CC)[C@@H](C)CC)C(=O)N[C@@H](CCC(=O)O)C(=O)N[C@@H](Cc1c[nH]c2ccccc12)C(=O)N[C@@H](CC(C)C)C(=O)N[C@@H](CC(C)C)C(=O)N[C@@H](C)C(=O)N[C@@H](CCC(N)=O)C(=O)N[C@@H](CCC(=O)O)C(=O)N1CCC[C@H]1C(=O)N[C@@H](CO)C(=O)N[C@@H](CO)C(=O)NCC(=O)N[C@@H](C)C(=O)N1CCC[C@H]1C(=O)N1CCC[C@H]1C(=O)N1CCC[C@H]1C(=O)N[C@@H](CO)C(N)=O` [SEQ ID NO: 27, H2N-Y-Aib-E-G-T-F-I-S-D-L-S-I-Aib-K[{AEEA}2-gGlu-C18OH]-DRIHQEEFIEWLLAQEPSSGAPPPS-NH2] (H-Y[Aib]EGTFISDLSI[Aib]K([AEEA-AEEA-γGlu-C18 diacid])DRIHQEEFIEWLLAQEPSSGAPPPS-NH2), at human GIP receptor, the EC50 was determined as 0.6 nM and the Emax came out at 116%. This compound came in with an IC50 in data set [1] of 0.7 nM. In data set [2], this compound showed a Soluble amount of more than 8.4 mg/mL and a solubility at 24 h of more than 9000 µg/mL. The same compound showed an EC50 in data set [3] of more than 10 nM.
With `CC[C@H](C)[C@H](NC(=O)[C@H](Cc1ccccc1)NC(=O)[C@H](CCC(=O)O)NC(=O)[C@H](CCC(=O)O)NC(=O)[C@H](CCC(N)=O)NC(=O)[C@H](Cc1c[nH]cn1)NC(=O)[C@@H](NC(=O)[C@H](CCCNC(=N)N)NC(=O)[C@H](CC(=O)O)NC(=O)[C@H](CCCCNC(=O)COCCOCCNC(=O)COCCOCCNC(=O)CC[C@H](NC(=O)CCCCCCCCCCCCCCCCC(=O)O)C(=O)O)NC(=O)C(C)(C)NC(=O)[C@@H](NC(=O)[C@H](CO)NC(=O)[C@H](CC(C)C)NC(=O)[C@H](CC(=O)O)NC(=O)[C@H](CO)NC(=O)[C@@H](NC(=O)[C@H](Cc1ccccc1)NC(=O)[C@@H](NC(=O)CNC(=O)[C@H](CCC(=O)O)NC(=O)C(C)(C)NC(=O)[C@@H](N)Cc1ccc(O)cc1)[C@@H](C)O)[C@@H](C)CC)[C@@H](C)CC)[C@@H](C)CC)C(=O)N[C@@H](CCC(=O)O)C(=O)N[C@@H](Cc1c[nH]c2ccccc12)C(=O)N[C@@H](CC(C)C)C(=O)N[C@@H](CC(C)C)C(=O)N[C@@H](C)C(=O)N[C@@H](CCC(N)=O)C(=O)N[C@@H](CCC(=O)O)C(=O)N1CCC[C@H]1C(=O)N[C@@H](CO)C(=O)N[C@@H](CO)C(=O)NCC(=O)N[C@@H](C)C(=O)N1CCC[C@H]1C(=O)N1CCC[C@H]1C(=O)N1CCC[C@H]1C(=O)N[C@@H](CO)C(=O)O` [SEQ ID NO: 28, H2N-Y-Aib-E-G-T-F-I-S-D-L-S-I-Aib-K[{AEEA}2-gGlu-C18OH]-DRIHQEEFIEWLLAQEPSSGAPPPS-OH] (H-Y[Aib]EGTFISDLSI[Aib]K([AEEA-AEEA-γGlu-C18 diacid])DRIHQEEFIEWLLAQEPSSGAPPPS-OH), at human GIP receptor, the EC50 stood at 0.5 nM and the maximum response (Emax) amounted to 103%. The IC50 in data set [1] was 0.8 nM. In data set [2], this compound returned a Soluble amount of more than 9.0 mg/mL and a solubility at 24 h of more than 9400 µg/mL. This compound registered an EC50 in data set [3] of more than 10 nM.
